Data taken from US6906179B2, “Antibody to SNIP1” (The General Hospital Corporation, priority 1999, dated 2005).
Like-named read-outs stand apart in the source and are kept apart here. *1 amine or outer side, *2 acyl side, *3 side chain or, on linkers, in order; H or OH if unused. Where a SMILES comes first, the peptide text is derived from it. Bridges are numbered along the chain shown (N, C = ends). Roman numbers before positions name the chains, in order. [ ]: non-standard residue; d: D form. Actinocin(9to1) = Cc1c2oc3c(C)ccc(C(=O)[*:1])c3nc-2c(C(=O)[*:2])c(N)c1=O; NMeV = CN[C@H](C(=O)O)C(C)C; Sar = CNCC(=O)O

Assays:
ischemic brain injury [1] = conditions: single ICV injection of 1 μg/kg at 2, 4 or 6 hour before; assessed 48 hours after injury; cited from earlier work
ischemic brain injury [2] = conditions: cited from earlier work
ischemic brain injury [3] = conditions: cited from earlier work; remark: listed apart in the source
SNIP-1 protein level = assay: ALK3Q233D-induced degradation of SNIP-1 in transfected COS cells, Western blot; format: cell-based; conditions: inhibitors added 10 hours before cell lysis; ALK3Q233D transfected COS cells
Text: The novel Smad1 interactor is a nuclear proteip (termed as Smad1 Nuclear Interactor Protein 1, SNIP-1, SEQ ID No. 3), with a carboxyterminal domain that is highly homologous to the aminoterminus of the nuclear inhibitor of protein phosphatase 1 (NIPP-1) (Wang & Lechleider, unpublished) (FIG. 31A & C). NIPP-1 (VanEynde et al., 1995) is known to be rapidly processed into smaller heat-stable intermediates, a process that may be mediated by proteasome (see Discussion in Jagiello et al., 1995). SNIP-1 is a strong interactor of Smad1, that also binds to both antizyme and HsN3 in the yeast two-hybrid assays (FIG. 311B).
Forty-eight hours after transfection, COS cells were lysed in an equal volume of lysis buffer (300 ul/plate), and the total protein concentration of each sample was measured. No major difference in protein concentration was detected among the lysates. The protein level of SNIP-1 in 100 ug of total protein lysate was determined by Western blot using anti-T7 monoclonal antibody. […] Such a decrease is dependent upon the coexpression of Smad1, DPC4 and antizyme, since replacing each of these three proteins with an unrelated protein (β galactosidase) abolishes such a decrease in ALK3Q233D transfected cells (FIG. 31D, top panel, lanes 9-14). […] The total amount of proteins in the tested lanes was normalized before loading, and equal loading was confirmed by Western blot using anti-a tubulin (FIG. 31D, bottom panel).
To determine whether the decrease in the level of SNIP-1 protein level is caused by proteasome mediated degradation, we used inhibitors of the proteasome. Proteasome inhibitors that selectively block different proteolytic activities of the proteasome are powerful tools for studying the role of proteasomes in many aspects of cell growth, differentiation and apoptosis (Hilt et al., 1993; Palomebella et al., 1994; Figueiredo-Pereira et al., 1994; Thraenckner et al., 1994; Read et al., 1995; Grimm et al., 1996, for reviews, see Coux et al., 1996). […]

rat sympathetic neurons = assay: OP-1 induced dendritic growth of rat sympathetic neurons; format: cell-based; conditions: for inhibition of OP-1 induced dendritic growth: reversible peptidyl aldehyde inhibitors
Description: If Smad1 and DPC4 signal through proteasome mediated proteolysis, proteasome inhibitors should block the signaling of BMPs. We thus directly tested the effects of the proteasome inhibitors on the signaling pathways of BMPs that signal via Smad1 activation. […] The EC50 for the inhibitory activity of lactacystin was ˜100 nM and maximal effects were obtained with 4-6 hour pretreatments (not shown).
To determine the time course of sensitivity to lactacystin with respect to the signaling pathway of OP-1, lactacystin was added to the media at various time points after the addition of OP-1 (FIG. 32, bottom panel B).

HEF1 protein level = assay: Smad3-induced proteasomal degradation of HEF1 in 293 cells; format: cell-based; conditions: for Smad3-induced reduction (degradation) of HEF1 protein level: 293 cells, presence or absence of type I receptors
Text: Two different forms of HEF1, p115HEF1 and p105HEF1, have been previously reported to be derived from differential phosphorylation (Law et al., 1996, Mol. Cell. Boil. 16: 3327; Minegishi et al., 1996, J. Exp. Med. 184: 1365; Lae et al., 1998, supra). Both forms of HEF1 were detected at a similar level in 293 cells after HEF1 transfection for 24 hrs (data not shown). However, p115HEF1 was the predominant form that associates with Smad3, and to a much lesser extent, with Smad1 and Smad2. Neither p115HEF1 nor p105HEF1 was detected in the immunoprecipitates of Smad4.
It was tested whether the observed reduction of HEF1 level by Smad3 is regulated by TGF-β and activin type I receptor activation and whether the reduction is mediated by proteasomal degradation. The Smad3-mediated reduction of HEF1 protein level was further enhanced in the presence of the overexpressed wildtype TGF-β type I receptor and wildtype activin type I receptor, as well as the constitutively active mutant TGF-β type I receptor (R4T204D) and the activated mutant activin type I receptor (R2T206D)). […]
Like other Smad family proteins, Smad3 can be divided into three subdomains: an amino-terminal MH1 domain, a central linker region and a carboxyl-terminal MH2 domain The N-terminal MH1 domain of Smad3 (Smad3N) has the ability to bind to specific DNA sequences (Massague, 1998, supra; Derynck et al., 1998, Cell 95: 737; Wrana, 2000, Cell 100: 189), whereas the C-terminal MH2 domain interacts with the TGF-β type I receptor as well as multiple transcriptional regulators (Massague, 1998, supra; Derynck, 1998, supra; Wrana, 2000, supra). […] In cells that were not treated with LLnL, p115HEF1 and smaller amount of p105HEF1 were detected in the immunoprecipitates of Smad3N, Smad3C and full length Smad3, with the strongest HEF1 signal detected in the immunoprecipitates of Smad3C. […] In fact, when LLnL stabilizes HEF1, the highest amount of HEF1 was detected in the immunoprecipitates of full length Smad3. […]

endogenous HEF1 = assay: TGF-β regulation of endogenous HEF1 in A549 lung carcinoma cells; format: cell-based
Description: In A549 lung carcinoma cells, which predominantly express p115HEF1, a decrease of endogenous p115HEF1 was detected after 15 min exposure to TGF-β. Furthermore, LLnL was able to block the TGF-β induced decrease of endogenous HEF1, indicating the involvement of the proteasome in this event. The change of p105HEF1 in response to TGF-β was also observed, but not as apparent as p115HEF1 due to the very low level of p105HEF1 in this cell line. It was noted that the steady-state level of both p115HEF1 and p105HEF1 increased after 3 hrs of TGF-β stimulation. […] To directly test this, we performed a time-course Northern blot on HEF1 mRNA isolated from A549 cells treated with TGF-β for different time periods. […] Thus, TGF-β down-regulates HEF1 protein level via proteasomal degradation and also induces HEF1 mRNA level via transcriptional activation, which may serve as a negative feedback mechanism to restore HEF1 protein level.

[4] = system: biological activities of BMPs and TGF-beta; assay: Inhibition of the biological activities of BMPs and TGF-beta (summary statement)
proteasome = conditions: LLnL versus LLM; cited from earlier work
[5] = system: calpain, cathepsin B, chymotrypsin, trypsin and papain; conditions: cited from earlier work

TGF-β1: prototypical member of the TGFβ family of cytokines, exogenously administered
decrease in ischemic area of the neocortex (ischemic brain injury [1]): ≈ 10% | neuroprotection (ischemic brain injury [2]; 0.5 or 50 ng ICV): no neuroprotection | CA1 pyramidal cell survival (ischemic brain injury [2]; same amount (4 ng) by ICV): 48% | pyramidal cell survival (ischemic brain injury [2]; single 4 ng intrahippocampal injection 1 h prior to TFGI, assessed 7 days after): 50% | deficits in water maze learning ability and asymmetry in somatosensory functions (ischemic brain injury [3]; 10 ng ICV, first 10 days after injury): improved | intensity of microglial activation (ischemic brain injury [3]; 10 ng, 48 hours after ischemic injury): significantly reduced | neuroprotection (ischemic brain injury [3]; 2 or 50 ng on the same schedule): did not provide significant neuroprotection | area of cortical infarction (ischemic brain injury [3]; dose response): bell-shaped dose-response effect | neuroprotection in cortex, thalamus, striatum and dentate gyrus (ischemic brain injury [3]; single ICV dose of 10 ng 2 hours after ischemic injury, assessed 5 days after): significant neuroprotection | CA1-CA4 hippocampal neurons (ischemic brain injury [3]; single ICV dose of 10 ng 2 hours after ischemic injury): not protected

N-acetyl-L-Leucinyl-L-Leucinal-L-norleucinal [LLnL]
ALK3Q233D induced decrease of SNIP-1 protein level (SNIP-1 protein level): reversed | inhibition of OP-1 activity, relative concentration (rat sympathetic neurons; LLnL versus LLM): inhibited OP-1 activity at lower concentrations than LLM | inhibition of OP-1 induced dendritic growth (rat sympathetic neurons): Inhibition of OP-1 induced dendritic growth was also observed | Smad3-induced reduction (degradation) of HEF1 protein level (HEF1 protein level): able to block | Smad3N-mediated reduction of p115HEF1 (HEF1 protein level; HEF1 co-expressed with Smad3N): blocked | TGF-β induced decrease of endogenous HEF1 (endogenous HEF1): able to block | biological activities of BMPs and TGF-beta [4]: able to inhibit | potency as inhibitor of proteasome activity (proteasome): more potent inhibitor of proteasome activity than LLM

Cc1c2oc3c(C)ccc(C(=O)N[C@@H]4C(=O)N[C@H](C(C)C)C(=O)N5CCC[C@H]5C(=O)N(C)CC(=O)N(C)[C@@H](C(C)C)C(=O)O[C@@H]4C)c3nc-2c(C(=O)N[C@@H]2C(=O)N[C@H](C(C)C)C(=O)N3CCC[C@H]3C(=O)N(C)CC(=O)N(C)[C@@H](C(C)C)C(=O)O[C@@H]2C)c(N)c1=O [actinomycin D, reference compound] (I: T[dV]P[Sar][NMeV] / II: T[dV]P[Sar][NMeV]; ester I:1-I:C, II:1-II:C; linker I:N-II:N via Actinocin(9to1))
increase of steady-state p115HEF1 and p105HEF1 after 3 hrs of TGF-β stimulation (endogenous HEF1): can be inhibited

CC(=O)N[C@@H](CSC(=O)[C@]1([C@@H](O)C(C)C)NC(=O)[C@H](C)[C@@H]1O)C(=O)O [lactacystin]
ALK3Q233D induced decrease of SNIP-1 protein level (SNIP-1 protein level): reversed | EC50 (rat sympathetic neurons; Sympathetic neuron, rat sympathetic neurons, read-out: EC50 for the inhibitory activity on OP-1 induced dendritic growth): ~100 nM | OP-1 induced dendritic growth (rat sympathetic neurons; added later than 3 hrs after OP-1): resistance to the inhibitory effects developed after 3 hrs and are apparent after 8 hrs | OP-1 induced dendritic growth (rat sympathetic neurons; added within 3 hrs of OP-1 exposure): fully inhibited | ability to form dendrites in the presence of OP-1 or BMP-6 (rat sympathetic neurons; pretreatment for 4 hours): concentration-dependent decrease | axonal growth or cell survival (rat sympathetic neurons; rat sympathetic neurons): did not affect | Smad3-induced reduction (degradation) of HEF1 protein level (HEF1 protein level): blocked | biological activities of BMPs and TGF-beta [4]: able to inhibit | activity of other proteases [5]: does not inhibit

CSCCC(C=O)NC(=O)C(CC(C)C)NC(=O)C(CC(C)C)NC(C)=O (stereo not drawn) [LLM] (Ac-Leu-Leu-Met-aldehyde; configuration not given here)
ALK3Q233D induced decrease of SNIP-1 protein level (SNIP-1 protein level): reversed | inhibition of OP-1 induced dendritic growth (rat sympathetic neurons): Inhibition of OP-1 induced dendritic growth was also observed
